Three substances from US6197535A, “Methods for purifying and assaying a conus γ-carboxylase” (University of Utah Research Foundation, priority 1999, dated 2001) can be followed below.

The assay concerns Conus γ-glutamyl carboxylase (Conus radiatus venom duct microsomes). It is filed as biochemical. The settings on record: for Km: read-out: apparent Km.

For “GKDRLTQMKRILKQRGNKAR-GEEELY-NH2 [wild type substrate]”, the Km was determined as 40 µM.
Regarding GEEELQENQELIREKSN-NH2 [E.Con-G], the Michaelis constant (Km) is 3400 µM.
For GKDRLTQMKRILKQRGNKAR [Pro (-20 to -1)], the “enhancement of carboxylation of E.Con-G” value is given as ~ 25%, the “enhancement of carboxylation of FLEEL” value is reported as 40% and the “inhibition of carboxylation of -10.Pro-E.Con-G” value is recorded as “is an inhibitor”. Further, the IC50 (read-out: apparent IC50) was found to be 490 µM.
